Measured values published in patent US20130030012A1, “COMPOUNDS” (Glaxo Group Limited, priority 2011, published 2013).
Where a name gives a salt, the structure may show the parent alone. Read-outs that look alike come from different tables or passages of the source.

Tests used:
Lp-PLA2 in human plasma = target: T1, Lp-PLA2 in human plasma (Homo sapiens, UniProt Q13093); assay: Lp-PLA2 human plasma assay (Thio-PAF assay); type: biochemical; details: pooled human plasma; read-out: pIC50 values in the thio-PAF assay (converted)
T1 construct: from tissue; host or cells: pooled human plasma
T1 sequence (Q13093 22-441): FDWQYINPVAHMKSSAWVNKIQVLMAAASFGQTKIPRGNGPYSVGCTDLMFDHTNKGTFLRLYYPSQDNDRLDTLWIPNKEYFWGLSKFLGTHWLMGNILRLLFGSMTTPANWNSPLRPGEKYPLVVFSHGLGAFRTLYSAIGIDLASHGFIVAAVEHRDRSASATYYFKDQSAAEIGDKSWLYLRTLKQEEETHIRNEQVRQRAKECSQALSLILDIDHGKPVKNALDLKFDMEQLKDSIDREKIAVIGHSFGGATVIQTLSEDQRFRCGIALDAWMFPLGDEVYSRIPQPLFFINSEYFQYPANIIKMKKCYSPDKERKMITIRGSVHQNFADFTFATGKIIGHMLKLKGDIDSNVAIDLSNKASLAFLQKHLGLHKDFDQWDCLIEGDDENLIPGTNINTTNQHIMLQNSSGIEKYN
Text: The human plasma assay utilizes a thioester analog of PAF (phosphatidylcholine), where hydrolysis yields to the formation of a phospholipid containing a free thiol group. The amount of thiol is quantitated continuously by reacting with CPM (7-diethylamino-3-(4′-maleimidylphenyl)-4-methylcoumarin), a maleimide which increases in fluoresence after Michael addition of thiols. This assay may detect the activity of Lp-PLA2 in human plasma, as determined by specific inhibition by Lp-PLA2 inhibitors.
The thio-PAF assay was run as a quenched 15 μL assay. Compounds source plate was prepared by making 1:3 (by volume) serial dilution of the compounds into pure DMSO on 384-well microplate. 0.01 μL of compounds on compound source plate were transferred to 384 well Greiner 784076 (black) low-volume plates by ECHO liquid dispenser. 8 μL pooled human plasma, which was previously aliquoted and frozen, was added. Plates were centrifuged for 10 sec at 500 rpm. After 30 minutes preincubation, 2 μL of substrate solution comprising 2.5 mM 2-thio-PAF [from ethanol stock], […] CPM [from a DMSO stock] and 3.2 mM NEM (N-ethylmaleimide) [made fresh daily in DMSO] in assay buffer of 50 mM HEPES, pH 7.4, 150 mM NaCl, 1 mM CHAPS was added to 384 well Greiner 784076 (black) low-volume plates by BRAVO liquid handling station. After 2 mins, reaction was quenched with 5 μL of 5% aqueous trifluoroacetic acid (TFA). Plates were covered to protect from light and incubated for 40 min at room temperature. Plates were read at ex: 380/em: 485 using—Envision microplate reader. pIC50 data, curve and QC analysis was conducted by using XLFit module in Excel.

[1] = target: T2, recombinant human Lp-PLA2 (Homo sapiens, UniProt Q13093); assay: Recombinant human Lp-PLA2 assay (rhLp-PLA2, PED6 assay); type: biochemical; details: upper limit for pIC50 in this assay is 9.3
T2 sequence (Q13093 22-441): T1 sequence (Q13093 22-441)
Text: (1) Recombinant Human Lp-PLA2 Assay (rhLp-PLA2) (Also Referred to as “PED6” Assay)
N-((6-(2,4-dinitrophenyl)amino)-hexanoyl)-2-(4,4-difluoro-5,7-dimethyl-4-bora-3a,4a-diaza-s-indacene-3-pentanoyl)-1-hexadecanoyl-sn-glycero-3-phosphoethanolamine, triethylammonium salt (PED6) is a commercially available fluorescently-labeled phospholipid, which is commercially available from Invitrogene and Molecular Probes. There is a quenching […] and a Bodipy fluorescein (FL) group in the sn2 position. Upon cleavage with Lp-PLA2, the Bodipy FL group is liberated and then may result in an increase in fluorescence. Inhibitors of Lp-PLA2 therefore prevent this cleavage and no fluorescent increase is observed.
The PED6 assay was run as an unquenched 10 μL assay. The source plate containing the compounds to be tested was prepared by making 1:3 (by volume) serial dilution of the compounds within DMSO on 384-well microplate. Then, 0.01 μL of the compounds on compound source plate were transferred into 384 well Greiner 784076 (black) plates using ECHO liquid dispenser. 5 μL of recombinant human Lp-PLA2 enzyme (4 nM (or 110 pM) rhLp-PLA2 in assay buffer of 50 mM HEPES, pH 7.4, 150 mM NaCl, 1 mM CHAPS) was added to each well of the plate. Plates were centrifuged for 10 sec at 500 rpm. After 30 minutes preincubation, 5 μL of substrate ([…] (or 5 μM) PED6 [from 5 mM DMSO stock] in assay buffer of 50 mM HEPES, pH 7.4, 150 mM NaCl, 1 mM CHAPS) was added to 384 well Greiner 784076 (black) plates. Plates were centrifuged for 10 sec at 500 rpm. The plate was covered to protect it from light and incubated for 20 min at room temperature. The plates were read for fluorescence intensity at ex: 480/em: 540 using ViewLux microplate imager for Envision spectrofluoroimeters pIC50 data, curve and QC analysis was conducted by using XL fit module in Excel.
The compounds described below were tested generally according to the PED6 assay described above.

[2] = Table 1, read-out: rhLp-PLA2 (PED6 assay) (pIC50) (converted)
[3] = read-out: pIC50 values in the PED6 assay (converted)

| Structure (SMILES) | IC50 (Lp-PLA2 in human plasma) [nM] | IC50 [1, 2] [nM] | IC50 [1, 3] [nM] |
| --- | --- | --- | --- |
| CN1CCCn2c1cc(OCc1ccc(Oc3cccc(C(F)(F)F)c3)c(F)c1)nc2=O [Example 28, 8-((3-fluoro-4-(3-(trifluoromethyl)phenoxy)benzyl)oxy)-1-methyl-3,4-dihydro-1H-pyrimido[1,6-a]pyrimidin-6(2H)-one] | ≤ 100 | 2.51 | ≤ 10 |
| CN1CCCn2c1cc(OCc1ccc(Oc3ccc(F)c(Cl)c3)cc1)nc2=O [Example 17, 8-((4-(3-chloro-4-fluorophenoxy)benzyl)oxy)-1-methyl-3,4-dihydro-1H-pyrimido[1,6-a]pyrimidin-6(2H)-one] | ≤ 1000 |  | ≤ 10 |
| CN1CCCn2c1cc(OCc1cc(F)c(Oc3cc(F)cc(F)c3)c(F)c1)nc2=O [Example 79, 8-((4-(3,5-difluorophenoxy)-3,5-difluorobenzyl)oxy)-1-methyl-3,4-dihydro-1H-pyrimido[1,6-a]pyrimidin-6(2H)-one] | ≤ 100 | 0.794 | ≤ 1 |
| CN1CCCn2c1cc(OCc1ccc(F)c(F)c1)nc2=O [Example 10, 8-((3,4-difluorobenzyl)oxy)-1-methyl-3,4-dihydro-1H-pyrimido[1,6-a]pyrimidin-6(2H)-one, trifluoroacetic acid salt] | ≤ 100 |  | ≤ 10 |
| Cc1ccc(Oc2ccc(COc3cc4n(c(=O)n3)CCCN4C)cc2C#N)cn1 [Example 56, 5-(((1-methyl-6-oxo-2,3,4,6-tetrahydro-1H-pyrimido[1,6-a]pyrimidin-8-yl)oxy)methyl)-2-((6-methylpyridin-3-yl)oxy)benzonitrile] | ≤ 100 |  | ≤ 1 |
| CN1CCCn2c1cc(OCc1ccc(Oc3cccnc3)c(C#N)c1)nc2=O [Example 76, 5-(((1-methyl-6-oxo-2,3,4,6-tetrahydro-1H-pyrimido[1,6-a]pyrimidin-8-yl)oxy)methyl)-2-(pyridin-3-yloxy)benzonitrile] | ≤ 100 | 1.26 | ≤ 10 |
| CN1CCCn2c1cc(OCc1ccc(Oc3ccc(F)cc3)c(C#N)c1)nc2=O [Example 30, 2-(4-fluorophenoxy)-5-(((1-methyl-6-oxo-2,3,4,6-tetrahydro-1H-pyrimido[1,6-a]pyrimidin-8-yl)oxy)methyl)benzonitrile] | ≤ 100 |  | ≤ 10 |
| O=c1nc(OCc2ccc(Oc3ccc(Cl)c(C(F)(F)F)c3)c(F)c2)cc2n1CCCN2 [Example 97, 8-((4-(4-chloro-3-(trifluoromethyl)phenoxy)-3-fluorobenzyl)oxy)-3,4-dihydro-1H-pyrimido[1,6-a]pyrimidin-6(2H)-one] | ≤ 100 |  | ≤ 1 |
| CN1CCCn2c1cc(OCc1cc(F)c(Oc3ccc(C(F)(F)F)cc3)c(F)c1)nc2=O [Example 89, 8-((3,5-difluoro-4-(4-(trifluoromethyl)phenoxy)benzyl)oxy)-1-methyl-3,4-dihydro-1H-pyrimido[1,6-a]pyrimidin-6(2H)-one] | ≤ 100 |  | ≤ 10 |
| O=c1nc(OCc2cc(F)c(Oc3ccc(F)c(C(F)(F)F)c3)c(F)c2)cc2n1CCCN2 [Example 93, 8-((3,5-difluoro-4-(4-fluoro-3-(trifluoromethyl)phenoxy)benzyl)oxy)-3,4-dihydro-1H-pyrimido[1,6-a]pyrimidin-6(2H)-one] | ≤ 100 | ≤ 0.501 | ≤ 1 |
| CN1CCCn2c1cc(OCc1ccc(Oc3ccc(C(F)(F)F)cn3)c(C#N)c1)nc2=O [Example 2, 5-(((1-methyl-6-oxo-2,3,4,6-tetrahydro-1H-pyrimido[1,6-a]pyrimidin-8-yl)oxy)methyl)-2-((5-(trifluoromethyl)pyridin-2-yl)oxy)benzonitrile] | ≤ 100 | 2.51 | ≤ 10 |
| CN1CCCn2c1cc(OCc1cc(F)c(Oc3ccc(Cl)c(F)c3)c(F)c1)nc2=O [Example 82, 8-((4-(4-chloro-3-fluorophenoxy)-3,5-difluorobenzyl)oxy)-1-methyl-3,4-dihydro-1H-pyrimido[1,6-a]pyrimidin-6(2H)-one] | ≤ 100 |  | ≤ 1 |
| CN1CCCn2c1cc(OCc1ccc(Oc3cccc(C(F)(F)F)n3)c(F)c1)nc2=O [Example 32, 8-((3-fluoro-4-((6-(trifluoromethyl)pyridin-2-yl)oxy)benzyl)oxy)-1-methyl-3,4-dihydro-1H-pyrimido[1,6-a]pyrimidin-6(2H)-one] | ≤ 1000 |  | ≤ 10 |
| CN1CCCn2c1cc(OCc1ccc(Oc3cccc(C(F)(F)F)c3)cc1)nc2=O [Example 77, 1-methyl-8-((4-(3-(trifluoromethyl)phenoxy)benzyl)oxy)-3,4-dihydro-1H-pyrimido[1,6-a]pyrimidin-6(2H)-one] | ≤ 1000 |  | ≤ 10 |
| N#Cc1cc(COc2cc3n(c(=O)n2)CCCN3)ccc1Oc1ccc(Cl)c(C(F)(F)F)c1 [Example 107, 2-(4-chloro-3-(trifluoromethyl)phenoxy)-5-(((6-oxo-2,3,4,6-tetrahydro-1H-pyrimido[1,6-a]pyrimidin-8-yl)oxy)methyl)benzonitrile] | ≤ 100 |  | ≤ 1 |
| N#Cc1cc(COc2cc3n(c(=O)n2)CCCN3)ccc1Oc1ccc(F)c(F)c1 [Example 94, 2-(3,4-difluorophenoxy)-5-(((6-oxo-2,3,4,6-tetrahydro-1H-pyrimido[1,6-a]pyrimidin-8-yl)oxy)methyl)benzonitrile] | ≤ 100 |  | ≤ 1 |
| O=c1nc(OCc2ccc(Oc3cccc(F)c3)c(F)c2)cc2n1CCCN2 [Example 116, 8-((3-fluoro-4-(3-fluorophenoxy)benzyl)oxy)-3,4-dihydro-1H-pyrimido[1,6-a]pyrimidin-6(2H)-one] | ≤ 100 |  | ≤ 1 |
| CN1CCCn2c1cc(OCc1cc(F)c(Oc3cccc(Cl)c3)c(F)c1)nc2=O [Example 90, 8-((4-(3-chlorophenoxy)-3,5-difluorobenzyl)oxy)-1-methyl-3,4-dihydro-1H-pyrimido[1,6-a]pyrimidin-6(2H)-one] | ≤ 1000 |  | ≤ 1 |
| O=c1nc(OCc2ccc(Oc3ccc(F)c(F)c3)cc2)cc2n1CCCN2 [Example 119, 8-((4-(3,4-difluorophenoxy)benzyl)oxy)-3,4-dihydro-1H-pyrimido[1,6-a]pyrimidin-6(2H)-one] | ≤ 100 |  | ≤ 1 |
| O=c1nc(OCc2ccc(Oc3ccc(F)cc3)c(F)c2)cc2n1CCCN2 [Example 118, 8-((3-fluoro-4-(4-fluorophenoxy)benzyl)oxy)-3,4-dihydro-1H-pyrimido[1,6-a]pyrimidin-6(2H)-one] | ≤ 100 |  | ≤ 1 |
